Measurements reported in patent US20230295234A1, “ANTIMICROBIAL PEPTIDOMIMETICS” (SPEXIS AG, priority 2020, published 2023).
Peptide text beside a SMILES is read from it.

Assays:
[1] = test system: Escherichia coli ATCC 25922; details: ATCC 25922
In short: (§1)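 First, bacterial colonies are suspended in saline and adjusted to 0.5 McFarland. Next, the suspension is diluted into cation-adjusted Mueller-Hinton II broth (approx. 5×10^5 CFU/mL). Finally, it is added to two-fold serially diluted peptide, with polysorbate 80 at 0.002% final.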

[2] = test system: Escherichia coli MCR-1 Af 45; details: MCR-1 Af 45
In short: as §1

[3] = test system: Klebsiella pneumoniae SSI3010; details: SSI3010
In short: as §1

[4] = test system: human red blood cells (hRBC); experiment: Hemolysis of human red blood cells; assay type: cell-based; details: red cells of human, 1 h
In short: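 Percent hemolysis is OD540 of peptide-treated supernatant relative to water-lysed cells. Each peptide was tested at 200 μg/mL against 20% (v/v) washed human erythrocytes. Incubation was 1 h at 37 °C, 300 rpm.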

| Escherichia coli ATCC 25922 MIC [1] | Escherichia coli MCR-1 Af 45 MIC [2] | Klebsiella pneumoniae SSI3010 MIC [3] | SMILES | Hemolysis at 0.2 g/L [4] |
| --- | --- | --- | --- | --- |
| 0.0625 µg/mL | 0.0625 µg/mL | 0.125 µg/mL | CC[C@H](C)[C@H](NC(=O)[C@@H](NC(=O)[C@@H]1CCCN1C(=O)[C@@H](NC(=O)[C@@H]1CCCN1C(=O)[C@H](CCCCN)NC(=O)[C@@H](N)CCCCN)C(C)C)[C@@H](C)CC)C(=O)N[C@@H](Cc1ccc(O)cc1)C(=O)N[C@H]1CSSC[C@@H](C(=O)N[C@@H](CCN)C(=O)N[C@@H](CCCNC(=N)N)C(=O)N[C@@H](CC2CCOCC2)C(=O)O)NC(=O)[C@H](CCCCN)NC(=O)[C@@H](CCN)NC(=O)[C@H]([C@@H](C)O)NC(=O)[C@H](CCN)NC(=O)[C@H](CCCNC(=N)N)NC(=O)[C@H](CC(N)=O)NC1=O [Example 80] (HELM PEPTIDE1{K.K.P.V.P.I.I.Y.C.N.R.[Dab].T.[NCC[C@@H](N[*:1])C(=O)[*:2]].K.C.[Dab].R.[O=C(O)[C@H](CC1CCOCC1)N[*:1]]}$PEPTIDE1,PEPTIDE1,9:R3-16:R3$$$V2.0) | 0% |
| ≤0.03125 µg/mL | ≤0.03125 µg/mL | 0.125 µg/mL | CC[C@H](C)[C@H](NC(=O)[C@@H](NC(=O)[C@@H]1CCCN1C(=O)[C@@H](NC(=O)[C@@H]1CCCN1C(=O)[C@H](CCCCN)NC(=O)[C@@H](N)CCCCN)C(C)C)[C@@H](C)CC)C(=O)N[C@@H](Cc1ccc(O)cc1)C(=O)N[C@H]1CSSC[C@@H](C(=O)N[C@@H](CCN)C(=O)N[C@@H](CCCNC(=N)N)C(=O)N[C@H](C(=O)O)C2CC2)NC(=O)[C@H](CCCCN)NC(=O)[C@@H](CCN)NC(=O)[C@H]([C@@H](C)O)NC(=O)[C@H](CCN)NC(=O)[C@H](CCCNC(=N)N)NC(=O)[C@H](CC(N)=O)NC1=O [Example 81] (HELM PEPTIDE1{K.K.P.V.P.I.I.Y.C.N.R.[Dab].T.[NCC[C@@H](N[*:1])C(=O)[*:2]].K.C.[Dab].R.[O=C(O)[C@@H](N[*:1])C1CC1]}$PEPTIDE1,PEPTIDE1,9:R3-16:R3$$$V2.0) | 0% |
| 0.0625 µg/mL | 0.0625 µg/mL | 0.125 µg/mL | CCC(CC)[C@H](NC(=O)[C@H](CCCNC(=N)N)NC(=O)[C@H](CCN)NC(=O)[C@@H]1CSSC[C@H](NC(=O)[C@H](Cc2ccc(O)cc2)NC(=O)[C@@H](NC(=O)[C@@H](NC(=O)[C@@H]2CCCN2C(=O)[C@@H](NC(=O)[C@@H]2CCCN2C(=O)[C@H](CCCCN)NC(=O)[C@@H](N)CCCCN)C(C)C)[C@@H](C)CC)[C@@H](C)CC)C(=O)N[C@@H](CC(N)=O)C(=O)N[C@@H](CCCNC(=N)N)C(=O)N[C@@H](CCN)C(=O)N[C@@H]([C@@H](C)O)C(=O)N[C@H](CCN)C(=O)N[C@@H](CCCCN)C(=O)N1)C(=O)O [Example 82] (HELM PEPTIDE1{K.K.P.V.P.I.I.Y.C.N.R.[Dab].T.[NCC[C@@H](N[*:1])C(=O)[*:2]].K.C.[Dab].R.[CCC(CC)[C@H](N[*:1])C(=O)O]}$PEPTIDE1,PEPTIDE1,9:R3-16:R3$$$V2.0) | 0% |
| 0.0625 µg/mL | 0.0625 µg/mL | 0.25 µg/mL | CC[C@H](C)[C@H](NC(=O)[C@@H](NC(=O)[C@@H]1CCCN1C(=O)[C@@H](NC(=O)[C@@H]1CCCN1C(=O)[C@H](CCCCN)NC(=O)[C@@H](N)CCCCN)C(C)C)[C@@H](C)CC)C(=O)N[C@@H](Cc1ccc(O)cc1)C(=O)N[C@H]1CSSC[C@@H](C(=O)N[C@@H](CCN)C(=O)N[C@@H](CCCNC(=N)N)C(=O)N[C@@H](CC(C)(C)C)C(=O)O)NC(=O)[C@H](CCCCN)NC(=O)[C@@H](CCN)NC(=O)[C@H]([C@@H](C)O)NC(=O)[C@H](CCN)NC(=O)[C@H](CCCNC(=N)N)NC(=O)[C@H](CC(N)=O)NC1=O [Example 83] (HELM PEPTIDE1{K.K.P.V.P.I.I.Y.C.N.R.[Dab].T.[NCC[C@@H](N[*:1])C(=O)[*:2]].K.C.[Dab].R.[CC(C)(C)C[C@H](N[*:1])C(=O)O]}$PEPTIDE1,PEPTIDE1,9:R3-16:R3$$$V2.0) | 0% |
| 0.0625 µg/mL | 0.0625 µg/mL | 0.125 µg/mL | CC[C@H](C)[C@H](NC(=O)[C@@H](NC(=O)[C@@H]1CCCN1C(=O)[C@@H](NC(=O)[C@@H]1CCCN1C(=O)[C@H](CCCCN)NC(=O)[C@@H](N)CCCCN)C(C)C)[C@@H](C)CC)C(=O)N[C@@H](Cc1ccc(O)cc1)C(=O)N[C@H]1CSSC[C@@H](C(=O)N[C@@H](CCN)C(=O)N[C@@H](CCCNC(=N)N)C(=O)N[C@H](C(=O)O)C(C)(C)C)NC(=O)[C@H](CCCCN)NC(=O)[C@@H](CCN)NC(=O)[C@H]([C@@H](C)O)NC(=O)[C@H](CCN)NC(=O)[C@H](CCCNC(=N)N)NC(=O)[C@H](CC(N)=O)NC1=O [Example 84] (HELM PEPTIDE1{K.K.P.V.P.I.I.Y.C.N.R.[Dab].T.[NCC[C@@H](N[*:1])C(=O)[*:2]].K.C.[Dab].R.[CC(C)(C)[C@H](N[*:1])C(=O)O]}$PEPTIDE1,PEPTIDE1,9:R3-16:R3$$$V2.0) | 0% |
| 0.0625 µg/mL | 0.0625 µg/mL | 0.125 µg/mL | CC[C@H](C)[C@H](NC(=O)[C@@H](NC(=O)[C@@H]1CCCN1C(=O)[C@@H](NC(=O)CCNC(=O)[C@H](CCCNC(=N)N)NC(=O)[C@@H](N)CCCCN)C(C)C)[C@@H](C)CC)C(=O)N[C@@H](Cc1ccc(O)cc1)C(=O)N[C@@H]1C(=O)N[C@@H](CC(N)=O)C(=O)N[C@@H](CCCNC(=N)N)C(=O)N[C@@H](CCN)C(=O)N[C@@H]([C@@H](C)O)C(=O)N[C@H](CCN)C(=O)N[C@@H](CCCCN)C(=O)N[C@H](C(=O)N[C@@H](CCN)C(=O)N[C@@H](CCCNC(=N)N)C(=O)N[C@@H](Cc2ccc(O)cc2)C(=O)O)CSSC1(C)C [Example 85, Lys-Arg-betaGly-Val-Pro-Ile-Ile-Tyr-Pen-Asn-Arg-Dab-Thr-^DDab-Lys-Cys-Dab-Arg-Tyr] (HELM PEPTIDE1{K.R.[bAla].V.P.I.I.Y.[Pen].N.R.[Dab].T.[NCC[C@@H](N[*:1])C(=O)[*:2]].K.C.[Dab].R.Y}$PEPTIDE1,PEPTIDE1,9:R3-16:R3$$$V2.0) | 0% |
| 0.125 µg/mL | ≤0.03125 µg/mL | 0.125 µg/mL | CC[C@H](C)[C@H](NC(=O)[C@@H]1CCCN1C(=O)[C@@H](NC(=O)[C@@H]1CCCN1C(=O)[C@H](CCCNC(=N)N)NC(=O)[C@@H](N)CCCCN)C(C)C)C(=O)N[C@@H](CCCNC(=N)N)C(=O)N[C@@H](Cc1ccc(O)cc1)C(=O)N[C@@H]1C(=O)N[C@@H](CC(N)=O)C(=O)N[C@@H](CCCNC(=N)N)C(=O)N[C@@H](CCN)C(=O)N[C@@H]([C@@H](C)O)C(=O)N[C@H](CCN)C(=O)N[C@@H](CCCCN)C(=O)N[C@H](C(=O)N[C@@H](CCN)C(=O)N[C@@H](CCCNC(=N)N)C(=O)N[C@@H](Cc2ccc(O)cc2)C(=O)O)CSSC1(C)C [Example 86] (HELM PEPTIDE1{K.R.P.V.P.I.R.Y.[Pen].N.R.[Dab].T.[NCC[C@@H](N[*:1])C(=O)[*:2]].K.C.[Dab].R.Y}$PEPTIDE1,PEPTIDE1,9:R3-16:R3$$$V2.0) | 0% |
| ≤0.03125 µg/mL | ≤0.03125 µg/mL | 0.25 µg/mL | CC[C@H](C)[C@H](NC(=O)[C@@H]1CCCN1C(=O)[C@@H](NC(=O)[C@@H]1CCCN1C(=O)[C@H](CCCNC(=N)N)NC(=O)[C@@H](N)CCCCN)C(C)C)C(=O)N[C@H](C(=O)N[C@@H](Cc1ccc(O)cc1)C(=O)N[C@@H]1C(=O)N[C@@H](CC(N)=O)C(=O)N[C@@H](CCCNC(=N)N)C(=O)N[C@@H](CCN)C(=O)N[C@@H]([C@@H](C)O)C(=O)N[C@H](CCN)C(=O)N[C@@H](CCCCN)C(=O)N[C@H](C(=O)N[C@@H](CCN)C(=O)N[C@@H](CCCNC(=N)N)C(=O)N[C@@H](Cc2ccc(O)cc2)C(=O)O)CSSC1(C)C)[C@@H](C)O [Example 87] (HELM PEPTIDE1{K.R.P.V.P.I.T.Y.[Pen].N.R.[Dab].T.[NCC[C@@H](N[*:1])C(=O)[*:2]].K.C.[Dab].R.Y}$PEPTIDE1,PEPTIDE1,9:R3-16:R3$$$V2.0) | 0% |
| ≤0.03125 µg/mL | ≤0.03125 µg/mL | 0.0625 µg/mL | CC[C@H](C)[C@H](NC(=O)[C@@H]1CCCN1C(=O)[C@@H](NC(=O)CN(C)C(=O)[C@H](CCCNC(=N)N)NC(=O)[C@@H](N)CCCCN)C(C)C)C(=O)N[C@H](C(=O)N[C@@H](Cc1ccc(O)cc1)C(=O)N[C@@H]1C(=O)N[C@@H](CC(N)=O)C(=O)N[C@@H](CCCNC(=N)N)C(=O)N[C@@H](CCN)C(=O)N[C@@H]([C@@H](C)O)C(=O)N[C@H](CCN)C(=O)N[C@@H](CCCCN)C(=O)N[C@H](C(=O)N[C@@H](CCN)C(=O)N[C@@H](CCCNC(=N)N)C(=O)N[C@@H](Cc2ccc(O)cc2)C(=O)O)CSSC1(C)C)[C@@H](C)O [Example 88, Lys-Arg-Sar-Val-Pro-Ile-Thr-Tyr-Pen-Asn-Arg-Dab-Thr-^DDab-Lys-Cys-Dab-Arg-Tyr] (HELM PEPTIDE1{K.R.[Sar].V.P.I.T.Y.[Pen].N.R.[Dab].T.[NCC[C@@H](N[*:1])C(=O)[*:2]].K.C.[Dab].R.Y}$PEPTIDE1,PEPTIDE1,9:R3-16:R3$$$V2.0) | 0% |
